The term Km denotes the substrate concentration at which the rate is half of its maximum.

Series [1] has as its target T1, CpAK mutant A380C (Corynebacterium glutamicum, UniProt P26512, A362C).
T1 construct: His-tag (pET-28a) (N); made in house; host or cells: E. coli BL21
Put plainly: biochemical. Further details: species or system Corynebacterium pekinense. Conditions: read-out: Relative activity (%). The protocol:
(§1) The reaction was performed through adding 20 μL purified enzyme and 20 μL substrate inhibitors (Lys, Thr, Met, Lys + Thr, Lys + Met, Thr + Met, and Lys + Thr + Met) at 0.2, 1, 5, and 10 mM. The reaction was finished by adding volume FeCl3 after 30 min and the absorbance was measured at 540 nm. Water was instead of the substrate inhibitor as blank control. The enzyme activity of blank control was defined as 100%.

The target of series [2] is T2, CpAK mutant T379N/A380C (Corynebacterium glutamicum, UniProt P26512, A362C/T361N).
T2 construct: His-tag (pET-28a) (N); made in house; host or cells: E. coli BL21
Briefly: biochemical. Conditions: read-out: Relative activity (%). Further details: species or system Corynebacterium pekinense. The protocol: as §1

Series [3] concerns the target T3, WT (Corynebacterium glutamicum, UniProt P26512).
T3 construct: gene lysC; recombinant from pET-28a-AK, His Trap purified, about 48 kDa
T3 sequence (P26512 1-421): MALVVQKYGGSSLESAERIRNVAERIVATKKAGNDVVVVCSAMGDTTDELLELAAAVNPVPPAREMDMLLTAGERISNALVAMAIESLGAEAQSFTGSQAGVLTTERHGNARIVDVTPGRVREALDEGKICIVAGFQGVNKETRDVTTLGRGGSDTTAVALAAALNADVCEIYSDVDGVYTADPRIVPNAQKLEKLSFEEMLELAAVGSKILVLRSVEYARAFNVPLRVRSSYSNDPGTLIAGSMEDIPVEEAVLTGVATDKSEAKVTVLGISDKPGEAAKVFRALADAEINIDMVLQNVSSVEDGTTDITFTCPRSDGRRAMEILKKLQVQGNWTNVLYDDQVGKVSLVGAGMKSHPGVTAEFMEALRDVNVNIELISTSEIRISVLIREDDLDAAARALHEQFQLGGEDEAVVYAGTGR
Briefly: Microscale thermophoresis of NT-647-NHS-labelled AK (40 nM) with diluted Asp in the enzyme activity measurement system, 28 °C, Monolith NT.115, no Lys added. It counts as binding. Conditions: read-out: K d (mM) Asp. The protocol:
(§2) The purified AK concentration was adjusted to 2–20 μM with labeled buffer. The solid fluorescent dye (NT-647-NHS) was appended with 100% DMSO (30 μL) and dissolved thoroughly after vortex vibration. Then the dyes were adjusted to 2–3 folds of the protein concentration with the marker buffer. Protein and the solid fluorescent dye were mingled in equal proportion for dark reaction 30 min, and then purified according to the purification kit operation. The unlabeled substrate Asp and inhibitor Lys were diluted in the enzymatic activity measurement system, and the final concentration ranged from […], respectively, which they were incubated with the labeled protein (40 nM) at room temperature for 10 min. Then the samples were loaded into the Standard Capillaries from Nano Temper Technologies. Thermophoresis was measured 30 min after incubation at 28 °C on Monolith NT.115.[22] The dissociation constant (Kd) values were fitted by means of the MO. Affinity analysis software.
A general note: In MST a laser heats a spot of the sample, and binding alters the fluorescence response.

In another series the target is WT (wild-type CpAK). Put plainly: Microscale thermophoresis (MST), WT. It counts as binding, Corynebacterium pekinense. The conditions noted are these: 28 °C. The protocol:
as §2

Series [4] has as its target T1, CpAK mutant A380C. Briefly: Microscale thermophoresis (MST), A380C. It counts as binding, Corynebacterium pekinense. The protocol:
as §2

Series [5] has as its target T2, CpAK mutant T379N/A380C. Briefly: Microscale thermophoresis (MST), T379N/A380C. The class given is binding, Corynebacterium pekinense. The protocol: as §2
Series [6] addresses T3, WT. Briefly: Microscale thermophoresis of NT-647-NHS-labelled AK (40 nM) with diluted Lys in the enzyme activity measurement system, 28 °C, Monolith NT.115. It counts as binding. The conditions noted are these: read-out: K d (mM) Lys. The protocol:
as §2

Substrate in series [7]: N[C@@H](CC(=O)O)C(=O)O
Put plainly: Colorimetric end-point assay (FeCl3, 540 nm) with 0.5-16 mM L-Asp, 10.4 mM ATP, 1.6 mM MgSO4, 800 mM KCl, 800 mM NH4OH, 100 mM Tris-HCl pH 8.0, 28 °C, 30 min; fitted with the Hill equation. The class given is biochemical. The protocol: The reaction system (1 mL) contained at the final concentration: 1.6 mM MgSO4, 800 mM KCl, 0.5–16 mM L-Asp, 10.4 mM ATP (dissoluted by 25 mM Tris–HCl), 100 mM Tris–HCl buffer solution (pH 8.0), 10 mM β-mercaptoethanol, and 800 mM NH4OH. The water was instead of L-Asp as blank control. The reaction was generated by adding 50 μL purified enzyme at 28 °C for 30 min, and stopped by adding FeCl3 solution (three parallel, below the same) and the absorbance were determined at 540 nm. The nonlinear curve was fitted by the Hill equation (V = Vmax (S^n)/(K^n + S^n)) using Origin 8.5 software. In the equation, the n value represents the Hill coefficient; the K value is equal to the substrate concentration at half the maximum rate of enzymatic reaction; Vmax and V indicate the maximum velocity and reaction rate, respectively; S means the substrate concentration.

Positions count from the first letter of the chain named. Names and notes keep the numbering of the source.

T2 sequence (P26512 whole entry T361N/A362C): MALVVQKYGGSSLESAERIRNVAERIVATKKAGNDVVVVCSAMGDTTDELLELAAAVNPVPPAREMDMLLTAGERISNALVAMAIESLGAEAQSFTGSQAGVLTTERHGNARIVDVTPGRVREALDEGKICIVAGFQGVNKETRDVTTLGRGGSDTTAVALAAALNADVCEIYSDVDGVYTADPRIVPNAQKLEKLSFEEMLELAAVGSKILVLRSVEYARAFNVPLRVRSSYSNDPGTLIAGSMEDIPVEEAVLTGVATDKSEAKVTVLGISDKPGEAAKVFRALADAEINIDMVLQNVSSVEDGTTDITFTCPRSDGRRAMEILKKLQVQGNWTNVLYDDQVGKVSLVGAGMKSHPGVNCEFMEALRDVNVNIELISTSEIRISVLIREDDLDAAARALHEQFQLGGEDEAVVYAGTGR
T1 sequence (P26512 whole entry A362C): as the sequence (P26512 whole entry T361N/A362C) above, with N361T counted along it

Regarding `CSCC[C@H](N)C(=O)O` [Met, methionine], at CpAK mutant A380C [1], the activity at 200 µM amounted to 95.1 ± 1.69%, the activity at 1000 µM is 97.71 ± 0.85%, the activity at 5000 µM worked out at 98.3 ± 2.6% and the activity at 10000 µM is 98.1 ± 1.89%. In addition, on CpAK mutant T379N/A380C [2], the activity at 200 µM was determined as 90.47 ± 0.12%, the activity at 1000 µM is 96.33 ± 0.56%, the activity at 5000 µM worked out at 98.12 ± 0.44% and the activity at 10000 µM came out at 99.47 ± 0.53%.
For `C[C@@H](O)[C@H](N)C(=O)O` [Thr, threonine], at CpAK mutant A380C [1], the activity at 200 µM came to 78.3 ± 1.19%, the activity at 1000 µM was 80.9 ± 3.06%, the activity at 5000 µM came out at 82.1 ± 3.56% and the activity at 10000 µM amounted to 87.8 ± 3.53%. Further, at CpAK mutant T379N/A380C [2], the activity at 200 µM came to 94.6 ± 3.26%, the activity at 1000 µM was determined as 97.06 ± 0.68%, the activity at 5000 µM stood at 97.8 ± 1.95% and the activity at 10000 µM stood at 98.12 ± 0.44%.
For the molecule `N[C@@H](CC(=O)O)C(=O)O` [Asp, L-aspartic acid (L-Asp)], the Kd at WT [3] stood at 655.1 ± 0.9 mM.
With `NCCCC[C@H](N)C(=O)O` [Lys, lysine], the activity at 200 µM was found to be 94.8 ± 0.97% on CpAK mutant A380C [1] and 96.99 ± 0.56% at CpAK mutant T379N/A380C [2]. The activity at 1000 µM at CpAK mutant A380C [1] was determined as 95.7 ± 1.43%; on CpAK mutant T379N/A380C [2] it was 98.8 ± 4.95%. For the same molecule, the activity at 5000 µM at CpAK mutant A380C [1] amounted to 99.7 ± 0.54%; on CpAK mutant T379N/A380C [2], 106.9 ± 0.56%. Also, the activity at 10000 µM turned out to be 104 ± 1.32% at CpAK mutant A380C [1] and 116 ± 1.81% on CpAK mutant T379N/A380C [2]. For the same molecule, the Kd at WT (wild-type CpAK) is 1.32 mM; at CpAK mutant A380C [4] it was 5.32 ± 0.01 mM; on CpAK mutant T379N/A380C [5] it was 9.24 mM; on WT [6], 1.32 mM.

B1: WT (Corynebacterium glutamicum ATCC 13032) (protein)
chain: T3 sequence (P26512 1-421)
notes: recombinant from pET-28a-AK, His Trap purified, about 48 kDa
On to B1, for which the Michaelis constant (Km) in series [7] is 4.17 mM.

B2: A380C (Corynebacterium glutamicum ATCC 13032; A362C) (protein)
chain: T3 sequence (P26512 1-421) with A362C
notes: recombinant from pET-28a-AK in E. coli BL21, His Trap purified, about 48 kDa
Regarding B2, the Km in series [7] stood at 3.57 mM.

B3: T379N/A380C (Corynebacterium glutamicum ATCC 13032; A362C/T361N) (protein)
chain: T3 sequence (P26512 1-421) with T361N, A362C
notes: as for B2
As for B3, the Km in series [7] is given as 2.89 mM.
